Assay results: US4762781A, “Antibodies capable of specifically identifying haptenic groups, their preparation and their use and to new antigens permitting their preparation” (priority 1983, dated 1988)
“Also recorded” adds a separate entry of the source. Read-outs that look alike come from different tables or passages of the source.

What was measured:
anti-TA antibodies = test: Equilibrium dialysis competition, displacement of (3H)-TA-G-ALM; assay type: binding, rabbit; details: for affinity constant KA: displacement of (3H)-TA-G-ALM from anti-TA antibodies; for affinity constant KA / KA: 1200 min; for KA: conjugates, slight immunoreactivity with anti-TA antibodies
anti-DA antibodies = test: Equilibrium dialysis competition, displacement of (3H) DA-G-ALM; assay type: binding, rabbit; details: for affinity constant KA: displacement of (3H) DA-G-ALM from anti-DA antibodies; for affinity constant KA / KA: 1200 min; for KA: conjugates, cross-reactivity with anti-DA antibodies
GABA antiserum = test: Immunocytochemical absorption controls of GABA antiserum on rat brain sections; design: species or system rabbit; details: absorption with a 10^-3 M solution
Protocol: Rat brains were fixed by perfusion with a 5% solution of glutaraldehyde in a cacodylate buffer, 0.1M, pH 7.5. The brain was cut in slices approximately 4 mm thick and then fixed again for 1.5-2 hours using the same fixative.
Sections of 50 micrometers were incubated with GABA antiserum diluted to 1/1,500. This antiserum was visualized using the peroxidase-antiperoxidasemethod, with diaminobenzidine as the chromogen.

anti-GABA antiserum = test: Equilibrium dialysis competition with tracer (3H) GABA-GA-PPL; assay type: binding, rabbit; details: for cross-reactivity, times less than that of the GABA-GA-PPL conjugate: anti-GABA antiserum
Protocol: The antibody solution is placed on one side of the membrane. Each conjugate of catecholamine is mixed with an equal volume of radioactive ligand before being placed on the other side of the membrane. The incubation solution of each antiserum is a citrate buffer 0.1M (pH 6.2) containing 1 mg/ml of bovine serum albumin (BSA) and 10 mM of sodium azide (N3 Na). The final volume is 2×150 microliters. This is left to incubate at 4° C. for 20 hours. Next the beta radioactivity in a sample of 100 microliters taken from each side of the membrane is counted.
Studies of specificity were conducted using the method of equilibrium dialysis, by competition of the tracer (^3 H) GABA-GA-PPL and the various conjugated analogues GABA-GA-PPL, glycine-GA-PPL, etc.

Anti-NA antibodies = assay type: binding, rabbit
Anti-W antibodies = test: ELISA competition, affinity and specificity of anti-indolamine antibodies; assay type: binding, rabbit
Protocol: This study was performed using an ELISA test (Enzyme-linked immunosorbent assay). The plates were coated with a solution of BSA-G-indolamine conjugate and then saturated with bovine serum. they were then placed in contact with the antibody solution under study, and then with anti-(rabbitgammaglobulin) goat antibodies conjugated with peroxidate of horseradish.

[1] = concentrations between 10^-9 M and 10^-8 M

Compound: CNC(=O)[C@H](CCCCNCCCCCNCCc1ccc(O)c(O)c1)NC(C)=O [DA-G-ALM]
- displacement of (3H)-TA-G-ALM / recognition by anti-TA antibodies (anti-TA antibodies): No displacement; also recorded: no affinity
- affinity constant KA (anti-TA antibodies): 2.6×10^4 l.mol.^-1
- displacement of (3H) DA-G-ALM / recognition by anti-DA antibodies (anti-DA antibodies): No displacement
- affinity constant KA (anti-DA antibodies): 6.7×10^7 l.mol.^-1
- displacement of (3H) DA-G-ALM / recognition by anti-DA antibodies (anti-DA antibodies; listed as DA-b-ALM): best displacement

Compound: NCCCC(=O)O [GABA, gamma-aminobutyric acid, reference compound]
- coloration after absorption of the serum (GABA antiserum): very great reduction in coloration
- displacement of the radioactive ligand (3H) GABA-GA-PPL (anti-GABA antiserum; even at a concentration of 10^-5 M): incapable of displacing

Compound: O=C(O)CCCNCCCCCNCCCC[C@H](NC(=O)[C@H](Cc1ccccc1)NC(=O)[C@@H]1CCCN1)C(=O)O [GABA--GA--lysine]
- Kd (anti-GABA antiserum; dissociation constant of the anti-GABA antibodies for the antigen): 0.02 µM

Compound: CNC(=O)[C@H](CCCCNCCCCCN[C@@H](Cc1ccc(O)c(O)c1)C(=O)O)NC(C)=O [L-DOPA--G--ALM]
- KA (anti-TA antibodies): 3.3 × 10^5 1. mol.^-1
- KA (anti-DA antibodies): 3.8 × 10^5 1. mol.^-1

Compound: NC[C@H](O)c1ccc(O)c(O)c1 [NA, norepinephrine, reference compound]
- displacement (Anti-NA antibodies): no displacement

Compound: CNC(=O)[C@H](CCCCNCCCCCNCC(O)c1ccc(O)c(O)c1)NC(C)=O (some centres unmarked) [NA-G-ALM]
- displacement (Anti-NA antibodies): best displacement
- KA (Anti-NA antibodies; 1200 min): 3.8e+07 L/mol
- displacement of (3H)-TA-G-ALM / recognition by anti-TA antibodies (anti-TA antibodies): No displacement
- affinity constant KA (anti-TA antibodies): 1.4×10^4 l.mol.^-1
- reactivity, times lower than that of DA-G-ALM (anti-DA antibodies; anti-DA antibodies): 53 times
- affinity constant KA (anti-DA antibodies): 5×10^5 l.mol.^-1

Compound: CNC(=O)[C@H](CCCCNCCCCCNCC(O)c1ccc(O)cc1)NC(C)=O (some centres unmarked) [OA--G--ALM]
- KA (anti-TA antibodies): 5.9 × 10^5 1. mol.^-1
- KA (anti-DA antibodies): 5 × 10^4 1. mol.^-1

Compound: NCCc1ccc(O)cc1 [TA, p-tyramine, reference compound]
- displacement of (3H)-TA-G-ALM / recognition by anti-TA antibodies (anti-TA antibodies): incapable of displacing
- affinity constant KA (anti-TA antibodies): 10^4 l.mol.^-1

Compound: CNC(=O)[C@H](CCCCNCCCCCNCCc1ccc(O)cc1)NC(C)=O [TA-G-ALM]
- affinity constant KA (anti-TA antibodies): 7×10^7 l.mol.^-1
- displacement of (3H) DA-G-ALM / recognition by anti-DA antibodies (anti-DA antibodies): No displacement; also recorded: do not recognize
- KA (anti-DA antibodies): 3.1 × 10^4 1. mol.^-1

Compound: N[C@@H](Cc1c[nH]c2ccccc12)C(=O)O [Tryptophane, L-tryptophane]
- displacement / identification by anti-W antibodies (Anti-W antibodies): only weakly identified

Compound: O=C(O)CC(NCCCCCNCCCC[C@H](NC(=O)[C@H](Cc1ccccc1)NC(=O)[C@@H]1CCCN1)C(=O)O)C(=O)O (some centres unmarked) [aspartate conjugate]
- reactivity with anti-GABA antiserum (anti-GABA antiserum; [1]): No reactivity

Compound: O=C(O)CCNCCCCCNCCCC[C@H](NC(=O)[C@H](Cc1ccccc1)NC(=O)[C@@H]1CCCN1)C(=O)O [beta-alanine conjugate]
- cross-reactivity, times less than that of the GABA-GA-PPL conjugate (anti-GABA antiserum): 175 times

Compound: NCCc1ccc(O)c(O)c1 [dopamine, reference compound]
- affinity constant KA (anti-DA antibodies): 6.7×10^3 l.mol.^-1
- displacement of (3H) DA-G-ALM by unmodified hapten (anti-DA antibodies; even at a concentration of 10^-6 M): not capable of displacing

Compound: O=C(O)CCC(NCCCCCNCCCC[C@H](NC(=O)[C@H](Cc1ccccc1)NC(=O)[C@@H]1CCCN1)C(=O)O)C(=O)O (some centres unmarked) [glutamate conjugate]
- reactivity with anti-GABA antiserum (anti-GABA antiserum; [1]): No reactivity

Compound: O=C(O)CNCCCCCNCCCC[C@H](NC(=O)[C@H](Cc1ccccc1)NC(=O)[C@@H]1CCCN1)C(=O)O [glycine conjugate]
- cross-reactivity, times less than that of the GABA-GA-PPL conjugate (anti-GABA antiserum): 795 times

Compound: O=C(O)[C@H](CCCCNCCCCCNCCS(=O)(=O)O)NC(=O)[C@H](Cc1ccccc1)NC(=O)[C@@H]1CCCN1 [taurine conjugate]
- reactivity with anti-GABA antiserum (anti-GABA antiserum): on the same order or magnitude as with the conjugate of aspartate or glutamate
